# Experimental data as given in patent US8148427B2, “Benzylamine derivative or pharmaceutically acceptable acid addition salt thereof, and use thereof for medical purposes” (Toray Industries, Inc., priority 2007, dated 2012).
# Where two headings read alike, the source gives them in different places. Marks after values point to notes of the source that are not given here.
# Assays:
# [1] = system: isolated bladder smooth muscle; experiment: Relaxing activity test against isolated bladder smooth muscle in rat; settings: resting tension of isolated rat bladder; relaxation by 10 μM forskolin = 100%
# Protocol: This method was carried out in accordance with the literature [J. Pharmacol. Exp. Ther., 293, 939 (2000)]. Each bladder was isolated from a normal Spague-Dawley rat, and a bladder section of the size of about 2×10 mm was prepared in the nutrient solution (Krebs solution [NaCl 118 mM; KCl 4.7 mM; NaH2PO4 1.1 mM; glucose 10 mM; NaHCO3 25 mM; MgCl2.7H2O 1 mM; CaCl2.2H2O 2.5 mM]) sufficiently oxygenated with 95% O2+5% CO2. The sample was suspended in a Magnus tube filled with the nutrient solution (Krebs solution) aerated with 95% O2+5% CO2 at 37° C., and stabilized under a load of 0.5 g for 60 minutes or longer. The resting tension of the bladder sample was recorded in a pen recorder through a tension transducer. The test compound was cumulatively applied about every 10 minutes. […] The test compound was dissolved in distilled water or aqueous 10% dimethylsulfoxide solution.
# female Spague-Dawley rat [2] = experiment: Number of voiding episodes in rat natural voiding behavior test; type: in vivo; settings: 1 hour after administration
# Protocol: This method was carried out according to the literature [Jpn. J. Pharmacol., 87, 27 (2001)]. Each female Spague-Dawley rat was placed in a urine collection cage, and an electronic balance was placed under the cage. Excreted urine was allowed to fall into a urine collection tray placed on the electronic balance, and its change in weight every 10 seconds was scaled with time through a personal computer. Not less than 0.1 g of the change in weight was regarded as indicative of urination, and the weight of 1 g was regarded as corresponding to 1 mL of urine. Drug administration was carried out subcutaneously, and the number of voiding episodes was measured for 1 hour before and after the drug administration, to observe its change (number of cases: 11 to 18/group).
# Significant difference test was carried out by student's-test or williams test, wherein a significance level of less than 5% was accepted as significant (* in the table).
# [3] = target: T1, human adrenergic β3 receptor (Homo sapiens, UniProt P13945); experiment: Agonistic activity (cAMP production) against human adrenergic β3 receptor in SK-N-MC cells; type: cell-based
# T1 construct: evaluated using SK-N-MC cells in the presence of a selective adrenergic β1 receptor antagonist; endogenous in cells; host or cells: SK-N-MC cells
# Protocol: (§1) This method was carried out according to the literature [J. Pharmacol. Exp. Ther., 271, 1253 (1994)] or [Naunyn-Schmiedeberg's Arch. Pharmacol., 369, 151 (2004)], using the amount of the production of cAMP as an index. The agonistic activity against human adrenergic β3 receptor was evaluated using SK-N-MC cells in the presence of a selective adrenergic β1 receptor antagonist (CGP-20712A, 1 μM). Evaluation of the agonistic activities against human adrenergic β2 and β1 receptors was carried out using CHO-K1 cells forcibly-expressed each receptor. Their cells were cultured in a culture flask. In assay day, they were detached and collected with EDTA, followed by dispensing in a 384-well plate so as to attain 10,000 cells/well. The test compound of each concentration was added to each well and allowed to react in a CO2 incubator at 37° C. for 30 minutes, followed by quantification of the produced cAMP using cAMP detection kit (Perkinelmer). The logarithm of the 50% reaction concentration of each test compound was calculated taking the reaction by 100 or 300 nM Isoproterenol as 100%. The test drug was added up to 10 μM, and in cases where reaction of not less than 50% was not observed at this concentration, the result was represented as n.d. (not detected).
# [4] = target: T2, human adrenergic β2 receptor (Homo sapiens, UniProt P07550); experiment: Agonistic activity (cAMP production) against human adrenergic β2 receptor in CHO-K1 cells; type: cell-based
# T2 construct: expressed in transfected cells; host or cells: CHO-K1 cells
# Protocol: as §1
# female Spague-Dawley rat [5] = experiment: Effect on cardiovascular system in anesthetized rats; type: in vivo; settings: cumulative, 30 minutes, relative to before administration
# Protocol: (§2) This method was carried out in accordance with the literature [Experimental Methods in Pharmacology, 5th Revised Edition, p. 168, KYODO ISHO SHUPPAN CO., LTD.]
# Each female Spague-Dawley rat was anesthetized with urethane, and a polyethylene cannula was inserted into the left common carotid artery and fixed therein, to measure the mean blood pressure and the heart rate. […] Data were represented as amounts of the changes (blood pressure: mmHg, heart rate: %) relative to values before the administration (number of cases: 3 to 8/group).
# female Spague-Dawley rat [6] = experiment: Effect on cardiovascular system in conscious rats; type: in vivo; settings: 30 minutes, relative to before administration
# Protocol: as §2
# Each female Spague-Dawley rat was anesthetized with ether, and a polyethylene cannula was inserted into the left common carotid artery and fixed therein, followed by subcutaneously indwelling a cannula for drug administration. After recovery from anesthesia, the mean blood pressure and the heart rate were measured under free moving conditions.
# [7] = system: isolated bladder smooth muscle; experiment: Relaxing activity against isolated bladder smooth muscle in human; settings: relaxation by 10 μM forskolin = 100%
# Protocol: This method was carried out in accordance with the literature [J. Urology, 165, 240 (2001)].
# A normal part (non-cancerous part) of the bladder removed from a human male (32-72 years old) by bladder cancer surgery was used. A bladder section sizing about 3×10 mm was prepared in the nutrient solution (Krebs solution [NaCl 118 mM; KCl 4.7 mM; NaH2PO4 1.2 mM; glucose 10 mM; NaHCO3 25 mM; MgCl2.7H2O 1.2 mM; CaCl2.2H2O 2.5 mM]) sufficiently oxygenated with 95% O2+5% CO2. The sample was suspended in a Magnus tube filled with the nutrient solution (Krebs solution) aerated with 95% O2+5% CO2 at 37° C., and stabilized under a load of 0.5 g for 60 minutes or longer. The resting tension of the bladder sample was recorded in a pen recorder through a tension transducer. The test compound was cumulatively applied about every 10 minutes. The test compound was dissolved in distilled water or aqueous 10% DMSO solution (number of cases: 3 to 4/group).
# female Spague-Dawley rat [8] = experiment: Number of voiding episodes in rat natural voiding behavior test; type: in vivo; settings: 3 hours after the administration
# [9] = SK-N-MC cells, cAMP, with CGP-20712A 1 μM, 100 or 300 nM Isoproterenol = 100%, tested up to 10 μM, read-out: β3 (logarithm of the 50% reaction concentration) (converted)
# T1 sequence (P13945 whole entry): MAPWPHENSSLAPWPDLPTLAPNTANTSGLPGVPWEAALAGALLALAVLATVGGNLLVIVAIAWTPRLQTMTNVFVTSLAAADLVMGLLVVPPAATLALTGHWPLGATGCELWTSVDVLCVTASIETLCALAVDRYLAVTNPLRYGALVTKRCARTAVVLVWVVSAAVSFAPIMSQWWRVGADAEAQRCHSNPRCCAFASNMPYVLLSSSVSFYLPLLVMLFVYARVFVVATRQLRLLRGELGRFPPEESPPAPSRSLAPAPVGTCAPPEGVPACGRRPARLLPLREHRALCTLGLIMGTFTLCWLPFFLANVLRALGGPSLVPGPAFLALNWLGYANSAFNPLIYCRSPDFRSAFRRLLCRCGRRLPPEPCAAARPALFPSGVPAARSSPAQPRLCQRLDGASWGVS
# T2 sequence (P07550 whole entry): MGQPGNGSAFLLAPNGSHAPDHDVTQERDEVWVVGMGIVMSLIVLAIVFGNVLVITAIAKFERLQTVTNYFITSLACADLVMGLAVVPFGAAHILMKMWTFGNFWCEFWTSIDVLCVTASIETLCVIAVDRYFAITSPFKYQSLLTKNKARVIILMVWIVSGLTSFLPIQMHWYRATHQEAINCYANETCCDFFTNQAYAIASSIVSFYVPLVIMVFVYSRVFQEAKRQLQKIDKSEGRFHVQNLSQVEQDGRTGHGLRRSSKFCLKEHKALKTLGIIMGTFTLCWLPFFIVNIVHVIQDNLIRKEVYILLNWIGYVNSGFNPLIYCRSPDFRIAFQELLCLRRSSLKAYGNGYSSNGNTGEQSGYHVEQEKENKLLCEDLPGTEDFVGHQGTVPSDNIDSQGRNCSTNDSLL
EC50 [1] [nM],"EC50 [3, 9] [nM]",EC50 [7] [nM],SMILES,Number of Voiding Episodes (female Spague-Dawley rat [2]; 3 mg/kg subcutaneously),EC50 [3] [nM],Change in Blood Pressure (female Spague-Dawley rat [5]; 3 mg/kg subcutaneously) [mmHg],further results
229,39.8,562,"COc1cc(CN[C@@H](C)[C@H](O)c2ccc(O)c(NS(C)(=O)=O)c2)cc(OC)c1 [Example 1, N-(5-((1R,2S)-2-(3,5-Dimethoxybenzylamino)-1-hydroxypropyl)-2-hydroxyphenyl)methane-sulfonamide]",–,–,−25.0 ± 3.6,"Number of Voiding Episodes (female Spague-Dawley rat [2]; 0.1 mg/kg subcutaneously): 1.06 ± 0.17; Number of Voiding Episodes (female Spague-Dawley rat [2]; 0.3 mg/kg subcutaneously): 0.83 ± 0.12*; Number of Voiding Episodes (female Spague-Dawley rat [2]; 1 mg/kg subcutaneously): 0.94 ± 0.17*; Change in Blood Pressure (female Spague-Dawley rat [5]; 0.3 mg/kg subcutaneously): −25.2 ± 4.7 mmHg; Change in Heart Rate (female Spague-Dawley rat [5]; 0.3 mg/kg subcutaneously): 121.7 ± 4.2%; Change in Blood Pressure (female Spague-Dawley rat [5]; 1 mg/kg subcutaneously): −25.4 ± 2.3 mmHg; Change in Heart Rate (female Spague-Dawley rat [5]; 1 mg/kg subcutaneously): 126.4 ± 5.1%; Change in Heart Rate (female Spague-Dawley rat [5]; 3 mg/kg subcutaneously): 135.2 ± 8.4%; Change in Blood Pressure (female Spague-Dawley rat [6]; 0.3 mg/kg subcutaneously): −6.5 ± 5.5 mmHg; Change in Heart Rate (female Spague-Dawley rat [6]; 0.3 mg/kg subcutaneously): 107.7 ± 3.5%; EC50 ([4]; CHO-K1 cells, cAMP, 100 or 300 nM Isoproterenol = 100%, tested up to 10 μM, n.d. = not detected at 10 μM, read-out: β2 (logarithm of the 50% reaction concentration) (converted)): 2340 nM"
74.1,33.1,708,"COc1cc(CN[C@@H](C)[C@H](O)c2ccc(O)c(NS(C)(=O)=O)c2)cc(OC)c1OC [Example 4, N-(2-Hydroxy-5-((1R,2S)-1-hydroxy-2-(3,4,5-trimethoxybenzylamino)propyl)phenyl)methane-sulfonamide]",0.33 ± 0.19*,–,–,–
36.3,31.6,–,"C[C@H](NCc1cc(C(F)(F)F)cc(C(F)(F)F)c1)[C@H](O)c1ccc(O)c(NS(C)(=O)=O)c1 [Example 2, N-(5-((1R,2S)-2-(3,5-Bis(trifluoromethyl)benzylamino)-1-hydroxypropyl)-2-hydroxyphenyl)methanesulfonamide]",0.45 ± 0.21*,–,–,–

# Further lines, the compound ahead of its results:
SMILES,EC50 [1] [nM],"EC50 [3, 9] [nM]",EC50 [7] [nM],Number of Voiding Episodes (female Spague-Dawley rat [2]; 3 mg/kg subcutaneously),EC50 [3] [nM],Change in Blood Pressure (female Spague-Dawley rat [5]; 3 mg/kg subcutaneously) [mmHg],further results
"C[C@H](NCc1cc(Cl)cc(Cl)c1)[C@H](O)c1ccc(O)c(NS(C)(=O)=O)c1 [Example 3, N-(5-((1R,2S)-2-(3,5-Dichlorobenzylamino)-1-hydroxypropyl)-2-hydroxyphenyl)methane-sulfonamide]",89.1,–,–,0.50 ± 0.15*,21.9,–,EC50 [4]: 1070 nM
"Cc1cc(C)cc(CN[C@@H](C)[C@H](O)c2ccc(O)c(NS(C)(=O)=O)c2)c1 [Example 5, N-(5-((1R,2S)-2-(3,5-Dimethylbenzylamino)-1-hydroxypropyl)-2-hydroxyphenyl)methane-sulfonamide]",151,–,575,0.50 ± 0.15*,72.4,–,–
"Nc1nc(CC(=O)Nc2ccc(CCNC[C@H](O)c3ccccc3)cc2)cs1 [Compound 11, reference compound]",–,–,–,0.67 ± 0.19,–,−17.1 ± 3.5,"Number of Voiding Episodes (female Spague-Dawley rat [2]; 3 mg/kg subcutaneously, listed as compound 11): did not show a significant effect; Change in Heart Rate (female Spague-Dawley rat [5]; 3 mg/kg subcutaneously, 3 mg/kg): 133.5 ± 8.2 %; Change in Blood Pressure (female Spague-Dawley rat [6]; 3 mg/kg subcutaneously): −22.5 ± 5.6 mmHg; effect of decreasing the frequency of voiding episodes (female Spague-Dawley rat [8]): significant effect"
